The values that follow come from PMC6445168, “Design, synthesis and antimalarial activity of novel bis{N-[(pyrrolo[1,2-a]quinoxalin-4-yl)benzyl]-3-aminopropyl}amine derivatives” (Journal of Enzyme Inhibition and Medicinal Chemistry, 2017).

Where a name gives a salt, the structure may show the parent alone.

A word on the melting point: it is the temperature, or range, at which the solid turns liquid. As to `c1ccc2c(c1)nc(-c1ccc(CNCCCNCCCNCc3ccc(-c4nc5ccccc5n5cccc45)cc3)cc1)c1cccn12` (as salt: ammonium) [1a, Bis{N-[4-(pyrrolo[1,2-a]quinoxalin-4-yl)benzyl]-3-aminopropyl}amine], the melting point is more than 260 °C.

Compound `COc1ccc2nc(-c3cccc(CNCCCN(C)CCCNCc4cccc(-c5nc6ccc(OC)cc6n6cccc56)c4)c3)c3cccn3c2c1` (as salt: ammonium) [1o, Bis{N-[3–(8-methoxypyrrolo[1,2-a]quinoxalin-4-yl)benzyl]-3-aminopropyl}methylamine] showed a melting point of 188 to 191 °C.

With `COc1ccc2nc(-c3cccc(CNCCCN(CCCNCc4cccc(-c5nc6ccc(OC)cc6n6cccc56)c4)CCCNCc4cccc(-c5nc6ccc(OC)cc6n6cccc56)c4)c3)c3cccn3c2c1` (as salt: ammonium) [1t, Tris{N-[3–(8-methoxypyrrolo[1,2-a]quinoxalin-4-yl)benzyl]-3-aminopropyl}amine], the melting point was 184 to 187 °C.

Compound `CN(CCCNCc1cccc(-c2nc3ccccc3n3cccc23)c1)CCCNCc1cccc(-c2nc3ccccc3n3cccc23)c1` (as salt: ammonium) [1m, Bis{N-[3-(pyrrolo[1,2-a]quinoxalin-4-yl)benzyl]-3-aminopropyl}methylamine] yielded a melting point of 209 to 211 °C.

`COc1ccc2nc(-c3ccc(CNCCCN4CCN(CCCNCc5ccc(-c6nc7ccc(OC)cc7n7cccc67)cc5)CC4)cc3)c3cccn3c2c1` (as salt: ammonium) [1g, Bis{N-[4–(8-methoxypyrrolo[1,2-a]quinoxalin-4-yl)benzyl]-3-aminopropyl}piperazine] returned a melting point of 236 to 239 °C.
